As usually defined, the IC50 is the midpoint of a concentration-inhibition curve.

Structures can show the parent of a compound that is named as a salt. Where two headings read alike, the source gives them in different places. Some results are limits rather than exact numbers.

This passage reports IC50 results from patent US20060040957A1, “BICYCLIC PYRIMIDINE MATRIX METALLOPROTEINASE INHIBITORS” (priority 2001, published 2006).

What all share (assay type): biochemical
The target of assay [1] is MMP-3CD (catalytic domain of stromelysin-1) (Homo sapiens, UniProt P08254). In words: Thiopeptolide substrate hydrolysis assay, MMP-3CD. The conditions noted are these: MES buffer pH 6.0, read-out: IC50 (μM) Versus Certain MMPs: MMP-03 CD. The procedure:
(§1) The invention compounds of Formula I have been evaluated in standard assays for their ability to inhibit the catalytic activity of various MMP enzymes.
(§2) Thiopeptolide substrates show virtually no decomposition or hydrolysis at or below neutral pH in the absence of a matrix metalloproteinase enzyme.
(§3) Several representative compounds have been evaluated for their ability to inhibit various matrix metalloproteinase enzymes.
It should be appreciated that the assay buffer used with MMP-3CD was 50 mM N-morpholinoethane sulfonate (−MES=) at pH 6.0 rather than the HEPES buffer at pH 7.0 described above.

Assay [2] addresses T1, MMP-7FL (full length matrilysin) (Homo sapiens, UniProt P09237).
T1 sequence (P09237 95-267): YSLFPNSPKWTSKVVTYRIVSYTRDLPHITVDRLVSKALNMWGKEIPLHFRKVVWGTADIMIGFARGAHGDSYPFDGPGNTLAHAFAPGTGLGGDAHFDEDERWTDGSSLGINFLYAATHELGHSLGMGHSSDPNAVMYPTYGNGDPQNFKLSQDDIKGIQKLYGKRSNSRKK
In words: Thiopeptolide substrate hydrolysis assay, MMP-7FL. The conditions noted are these: HEPES pH 7.0, 22° C., read-out: IC50 (μM) Versus Certain MMPs: MMP-07 FL.
Excerpt: as §1, §2, §3

Assay [3] deals with T2, MMP-1FL (full length interstitial collagenase) (Homo sapiens, UniProt P03956).
T2 sequence (P03956 100-469): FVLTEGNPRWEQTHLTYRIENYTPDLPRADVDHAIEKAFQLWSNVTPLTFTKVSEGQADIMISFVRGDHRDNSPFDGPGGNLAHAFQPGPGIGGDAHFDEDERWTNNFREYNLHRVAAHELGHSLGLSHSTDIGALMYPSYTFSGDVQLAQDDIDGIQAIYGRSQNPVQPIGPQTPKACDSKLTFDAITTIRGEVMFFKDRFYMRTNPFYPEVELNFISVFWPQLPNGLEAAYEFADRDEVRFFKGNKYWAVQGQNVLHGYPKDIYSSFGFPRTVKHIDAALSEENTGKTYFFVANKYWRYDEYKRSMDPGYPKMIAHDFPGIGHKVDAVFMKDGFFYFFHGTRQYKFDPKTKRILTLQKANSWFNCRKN
The assay can be described thus: Thiopeptolide substrate hydrolysis assay, MMP-1FL. The settings on record: HEPES pH 7.0, 22° C., read-out: IC50 (μM) Versus Certain MMPs: MMP-01 FL.
Excerpt: as §1, §2, §3

In assay [4] the target is MMP-14CD (catalytic domain of MMP-14) (Homo sapiens, UniProt P50281). In words: Thiopeptolide substrate hydrolysis assay, MMP-14CD. The conditions noted are these: HEPES pH 7.0, 22° C., read-out: IC50 (μM) Versus Certain MMPs: MMP-14 CD.
Excerpt: as §1, §2, §3

The target in assay [5] is T3, MMP-2FL (full length Gelatinase A) (Homo sapiens, UniProt P08253).
T3 sequence (P08253 110-660): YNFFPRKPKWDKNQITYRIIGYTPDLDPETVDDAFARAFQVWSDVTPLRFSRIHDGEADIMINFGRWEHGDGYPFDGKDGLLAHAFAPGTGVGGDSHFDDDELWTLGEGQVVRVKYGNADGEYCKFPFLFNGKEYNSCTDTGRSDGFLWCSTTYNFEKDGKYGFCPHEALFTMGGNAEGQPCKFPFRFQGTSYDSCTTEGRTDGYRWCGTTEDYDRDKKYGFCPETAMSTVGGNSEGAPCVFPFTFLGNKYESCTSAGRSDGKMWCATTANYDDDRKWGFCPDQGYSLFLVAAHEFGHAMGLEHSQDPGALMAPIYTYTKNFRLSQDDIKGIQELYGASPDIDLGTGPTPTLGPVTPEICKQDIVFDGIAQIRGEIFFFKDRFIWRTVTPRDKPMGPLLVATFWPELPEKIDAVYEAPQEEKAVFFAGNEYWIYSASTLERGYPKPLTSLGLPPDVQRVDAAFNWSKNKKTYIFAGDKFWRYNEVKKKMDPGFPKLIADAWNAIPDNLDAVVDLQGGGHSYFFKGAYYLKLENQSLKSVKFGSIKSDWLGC
In words: Thiopeptolide substrate hydrolysis assay, MMP-2FL. The settings on record: HEPES pH 7.0, 22° C., read-out: IC50 (μM) Versus Certain MMPs: MMP-02 FL.
Excerpt: as §1, §2, §3

Assay [6] addresses MMP-9FL (full length Gelatinase B) (Homo sapiens, UniProt P14780). The assay can be described thus: Thiopeptolide substrate hydrolysis assay, MMP-9FL. The conditions noted are these: HEPES pH 7.0, 22° C., read-out: IC50 (μM) Versus Certain MMPs: MMP-09 FL.
Excerpt: as §1, §2, §3

Assay [7] deals with MMP-13CD (catalytic domain of collagenase 3) (Homo sapiens, UniProt P45452). In words: Thiopeptolide substrate hydrolysis assay, MMP-13CD. The settings on record: thiopeptolide substrate, HEPES pH 7.0, 22° C.
Excerpt: as §2

Setting [8] is: IC50 (μM) Versus Certain MMPs: MMP-13 CD.
The mark [9] stands for this setting: read-out: IC50 (μM) Versus Certain MMPs: MMP-13 CD.

Chain of MMP-3CD (catalytic domain of stromelysin-1) (P08254 100-272 limits assumed): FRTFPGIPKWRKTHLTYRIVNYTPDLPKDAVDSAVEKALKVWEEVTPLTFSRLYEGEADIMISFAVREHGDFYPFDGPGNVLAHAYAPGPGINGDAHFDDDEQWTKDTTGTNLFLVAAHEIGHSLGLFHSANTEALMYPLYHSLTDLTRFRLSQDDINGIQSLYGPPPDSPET
Chain of MMP-9FL (full length Gelatinase B) (P14780 94-707, species assumed): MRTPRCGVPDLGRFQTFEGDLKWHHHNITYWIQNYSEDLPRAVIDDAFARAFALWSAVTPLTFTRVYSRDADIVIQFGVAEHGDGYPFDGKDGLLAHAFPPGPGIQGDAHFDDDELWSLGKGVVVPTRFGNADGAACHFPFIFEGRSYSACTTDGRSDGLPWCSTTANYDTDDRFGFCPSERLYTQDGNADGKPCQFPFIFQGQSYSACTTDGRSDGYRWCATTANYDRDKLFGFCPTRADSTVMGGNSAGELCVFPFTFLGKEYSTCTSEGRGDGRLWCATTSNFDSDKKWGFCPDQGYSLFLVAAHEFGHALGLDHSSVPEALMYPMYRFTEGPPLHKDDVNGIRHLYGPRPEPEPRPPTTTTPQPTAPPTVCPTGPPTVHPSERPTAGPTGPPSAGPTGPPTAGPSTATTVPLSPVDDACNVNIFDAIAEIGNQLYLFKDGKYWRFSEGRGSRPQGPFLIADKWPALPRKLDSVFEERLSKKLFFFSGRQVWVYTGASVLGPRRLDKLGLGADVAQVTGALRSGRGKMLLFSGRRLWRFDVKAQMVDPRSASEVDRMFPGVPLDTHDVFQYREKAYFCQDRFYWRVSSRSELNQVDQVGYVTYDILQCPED

On to `O=C(OCc1ccccc1)c1cn2c(=O)n(Cc3ccccc3)c(=O)cc2s1` [Example 1, 6-Benzyl-5,7-dioxo-6,7-dihydro-5H-thiazolo[3,2-c]pyrimidine-2-carboxylic acid benzyl ester], for which the IC50 in assay [1] is 23 µM; in assay [2], 96 µM; in assay [3], above 100 µM; in assay [4], above 30 µM.

Consider `O=C(OCc1ccncc1)c1cn2c(=O)n(Cc3ccccc3)c(=O)cc2s1` [Example 3, 6-Benzyl-5,7-dioxo-6,7-dihydro-5H-thiazolo[3,2-c]pyrimidine-2-carboxylic acid pyridin-4-ylmethyl ester hydrochloride], for which the IC50 in assay [1] is 11 µM; in assay [5] it was above 100 µM; in assay [6] it was above 100 µM; in assay [2] it was above 100 µM; in assay [3], above 100 µM; in assay [4] it was above 100 µM.

Turning to `O=C(NCc1ccccc1)c1cn2c(=O)n(Cc3ccccc3)c(=O)cc2s1` [Example 4, 6-Benzyl-5,7-dioxo-6,7-dihydro-5H-thiazolo[3,2-c]pyrimidine-2-carboxylic acid benzylamide], the IC50 in assay [1] is 27 µM; in assay [5] it was above 100 µM; in assay [6] it was 83.5 µM; in assay [2], 65 µM; in assay [3], 81 µM; in assay [7] (setting [8]) it was 0.572 µM. Moreover, the IC50 in assay [4] turned out to be 47.5 µM.

`O=c1cc2sc(C(O)CCc3ccccc3)cn2c(=O)n1Cc1ccccc1` (stereo not shown) [Example 5, 6-Benzyl-2-(1-hydroxy-3-phenyl-propyl)-thiazolo[3,2-c]pyrimidine-5,7-dione]: the IC50 in assay [1] was above 100 µM; in assay [5], above 100 µM; in assay [6], above 100 µM; in assay [2], above 100 µM; in assay [3] it was above 100 µM; in assay [7] (setting [9]) it was 14.3 µM. Also, in assay [4], the IC50 was above 100 µM.

As for `O=C(Nc1ccc(-c2ccccc2)cc1)c1cn2c(=O)n(Cc3ccccc3)c(=O)cc2s1` [Example 6, 6-Benzyl-5,7-dioxo-6,7-dihydro-5H-thiazolo[3,2-c]pyrimidine-2-carboxylic acid biphenyl-4-ylamide], the half-inhibitory concentration (IC50) in assay [1] was 3.5 µM; in assay [5], above 30 µM; in assay [6], above 30 µM; in assay [2], 9.2 µM; in assay [3], above 30 µM; in assay [7] (setting [9]), 23 µM. In addition, in assay [4], the IC50 was determined as 7.3 µM.

Turning to `O=C(CCc1ccccc1)c1cn2c(=O)n(Cc3ccccc3)c(=O)cc2s1` [Example 8, 6-Benzyl-2-(3-phenyl-propionyl)-thiazolo[3,2-c]pyrimidine-5,7-dione], the IC50 in assay [1] is 3.2 µM; in assay [5], above 100 µM; in assay [6] it was above 100 µM; in assay [2], above 30 µM; in assay [3], above 100 µM; in assay [7] (setting [8]) it was 6.6 µM. The IC50 in assay [4] worked out at 8.8 µM.

With `Cc1c(C(=O)OCc2ccccc2)sc2cc(=O)n(Cc3ccccc3)c(=O)n12` [Example 19, 6-Benzyl-3-methyl-5,7-dioxo-6,7-dihydro-5H-thiazolo[3,2-c]pyrimidine-2-carboxylic acid benzyl ester], the IC50 in assay [1] is above 100 µM; in assay [5] it was above 100 µM; in assay [6], above 30 µM; in assay [2], 8.8 µM; in assay [3] it was above 100 µM; in assay [7] (setting [8]), 21 µM. Moreover, the IC50 in assay [4] was above 30 µM.

Take `O=C(OCc1ccncc1)C1Cn2c(cc(=O)n(Cc3ccccc3)c2=O)S1` (stereo not shown) [Example 21, 6-Benzyl-5,7-dioxo-2,3,6,7-tetrahydro-5H-thiazolo[3,2-c]pyrimidine-2-carboxylic acid pyridin-4-ylmethyl ester hydrochloride]: the IC50 in assay [1], in assay [5], in assay [6], in assay [2], in assay [3] and in assay [4] was above 100 µM in each case.

As for `COc1cc(CNC(=O)c2cn3c(=O)n(Cc4ccccc4)c(=O)c(C)c3s2)ccn1` [Example 37], the IC50 in assay [1] is 10 µM; in assay [5] it was above 30 µM; in assay [6], above 30 µM; in assay [2] it was above 30 µM; in assay [3] it was above 30 µM; in assay [7] (setting [8]), 0.0175 µM. Also, in assay [4], the half-maximal inhibitory concentration (IC50) is above 30 µM.

As to `COC(=O)c1nc(Cn2c(=O)c(C)c3sc(C(=O)NCc4ccc(F)cc4)cn3c2=O)ncc1OC` [Example 78, 2-[2-(4-Fluoro-benzylcarbamoyl)-8-methyl-5,7-dioxo-7H-thiazolo[3,2-c]pyrimidin-6-ylmethyl]-5-methoxy-pyrimidine-4-carboxylic acid methyl ester], the IC50 in assay [1], in assay [5], in assay [6], in assay [2], in assay [3] and in assay [4] was above 30 µM each time.
